Assay results: US20200270294A1, “IMMUNOSTIMULATORY ADJUVANTS AND USES THEREOF” (TURUN YLIOPISTO, priority 2015, published 2020)

What was measured:
[1] = tested on: production of pro-inflammatory cytokine TNF in PBMC; assay: TNF production in PBMC cultures stimulated with Bet v; format: cell-based, human; conditions: 100 μg/ml (also printed 100 l/ml), Bet v 50 μg/ml, 72 h
From the text: (§1) During pollen season, 14 adult birch allergic subjects with allergic rhinoconjunctivitis (12 females and two males) were enrolled in the study (mean age 42.5 years, SD 12.4 years; mean birch-specific IgE (Immunocap, Thermo Fisher Scientific Phadia, Uppsala, Sweden) 36.1 kU/1, SD 31.5 kU/1). They were selected for the study from an earlier cohort based on good birch induced IL-4 responses during pollen season. All samples were taken after informed consent. The study was approved by the local ethics committee.
Peripheral blood mononuclear cells (PBMC) were isolated by Ficoll-Paque density gradient centrifugation (Ficoll-Paque PLUS, GE Healthcare BioSciences AB, Uppsala, Sweden) from heparinized blood samples from study subjects during pollen season. […]
The cytokines IL-4 and TNF in supernatants were measured with highsensitivity human cytokine Lincoplex kits (LINCO Research, St. Charles, Mo., USA). […]
Wilcoxon's Signed Rank test was used to test statistical significance in PBMC experiments. […] Data are expressed as mean±SEM and P-values of <0.05 are considered statistically significant.

[2] = tested on: birch-induced production of IL-4 in PBMC; assay: Birch allergen (Bet v) induced IL-4 production in PBMC cultures of birch allergic subjects; format: cell-based, human; conditions: for suppression of birch-induced production of IL-4: Bet v 50 μg/ml, 72 h; for in vitro activity (PBMC model): screen of oligovalent β-(1→2) mannosides
From the text: as §1
Peripheral blood mononuclear cells (PBMC) were isolated by Ficoll-Paque density gradient centrifugation (Ficoll-Paque PLUS, GE Healthcare BioSciences AB, Uppsala, Sweden) from heparinized blood samples from study subjects during pollen season. The PBMC were washed twice with Hanks' balanced salt solution (HBSS) buffered with NaHCO3 (pH 7.4) and resuspended in RPMI-1640 culture medium (Invitrogen Co., Carlsbad, Calif., USA) supplemented with 5% autologous serum, 2.5 mM L-glutamine (Sigma-Aldrich Co., St. Louis, Mo.) and 100 μg/ml gentamycin sulfate (Biological Industries Ltd., Kibbutz Beit Haemek, Israel) and applied on 48-well flat-bottomed cell culture plates (Costar, Corning Inc., New York, United States) at a density of […]. Cells were co-cultured in the presence of birch allergen (50 μg/ml, Betula verrucosa, Bet v, Aquagen, ALK-Abellò A/S, Horsholm, Denmark) and compounds 1, 2, 3 and MPL with concentrations 1, 10 and 100 μg/ml and adjuvant CpG-ODN with concentrations 2, 20 and 200 μg/ml to achieve equal molarities. Medium alone served as an unstimulated control. All incubations were performed at +37° C. in humidified atmosphere with 5% CO2. Supernatants from cultures performed in duplicate were collected 72 h after beginning of the stimulation and stored at −70° C.
The cytokines IL-4 and TNF in supernatants were measured with highsensitivity human cytokine Lincoplex kits (LINCO Research, St. Charles, Mo., USA). The assays were performed in accordance with the manufacturer's protocol by employing Luminex technology.
(§2) Wilcoxon's Signed Rank test was used to test statistical significance in PBMC experiments. Single mice groups were compared by the nonparametric Mann-Whitney U-test using GraphPad Prism software (v.5, GraphPad Software Inc., La Jolla, Calif., USA). Data are expressed as mean±SEM and P-values of <0.05 are considered statistically significant.

B16 melanoma cells = assay: In vivo model of cancer immunotherapy: B16 melanoma tumor growth in mice; design: species or system C57BL/6 mice
Method: as §2
3*10^6 B16 melanoma cells in 100 μl PBS were injected s.c. into the right flank of seven-week-old female C57BL/6 mice. Compound 3 was given i.p. 50 μg/injection in 200 μl PBS five times at 3-day intervals, starting on day 0. Each treatment group contained 10 mice. Tumor volumes were calculated using the formula 0.5*length*width^2. Animals were sacrificed when tumor volumes reached 800 mm^3. Animal experimentations were made following the procedures accepted by Eteli-Suomen Aluehallintavirasto (permission ESAVI/480/Apr. 10.2007/2016).

[3] = 10 μg/ml adjuvant, PBMC of 14 birch allergic patients
[4] = 100 g/ml or 100 l/ml as printed (highest concentration, b131: 100 μg/ml), PBMC

SMILES	production of pro-inflammatory cytokine TNF [1]	suppression of birch-induced production of IL-4 [2, 3]	suppression of birch-induced production of IL-4 [2, 4]	in vitro activity (PBMC model) [2]	tumor volume as compared to control mice (B16 melanoma cells; Day 9, i.p. 50 μg/injection five times at 3-day intervals)	start of tumor growth as compared to control (B16 melanoma cells; i.p. 50 μg/injection five times at 3-day intervals, starting on day 0)	tumor growth until Day 9 as compared to control (B16 melanoma cells; i.p. 50 μg/injection five times at 3-day intervals, until Day 9)
CC(=O)OC[C@H]1O[C@@H](O[C@@H]2[C@@H](OCCCn3cc(COCC(COCc4cn(CCCO[C@H]5O[C@H](COC(C)=O)[C@@H](OC(C)=O)[C@H](OC(C)=O)[C@@H]5O[C@@H]5O[C@H](COC(C)=O)[C@@H](OC(C)=O)[C@H](OC(C)=O)[C@@H]5OC(C)=O)nn4)OCc4cn(CCCO[C@H]5O[C@H](COC(C)=O)[C@@H](OC(C)=O)[C@H](OC(C)=O)[C@@H]5O[C@@H]5O[C@H](COC(C)=O)[C@@H](OC(C)=O)[C@H](OC(C)=O)[C@@H]5OC(C)=O)nn4)nn3)O[C@H](COC(C)=O)[C@@H](OC(C)=O)[C@@H]2OC(C)=O)[C@@H](OC(C)=O)[C@@H](OC(C)=O)[C@@H]1OC(C)=O (stereo partly drawn) [compound 2, 1,2,3-tris[1-(3-{O-(2,3,4,6-tetra-O-acetyl-β-D-mannopyranosyl)-(1-+2)-3,4,6-tri-O-acetyl-α-D-mannopyranosyloxy}propyl)-4-methyloxy-1,2,3-triazolyl]propane]	Significantly increased production	significant suppression	significant suppression	promising in vitro activities			
CC(=O)OCC1O[C@@H](OC2C(OC(C)=O)[C@H](OC(C)=O)C(COC(C)=O)O[C@@H]2OCCOCCOCCn2cc(COCC(COCc3cn(CCOCCOCCO[C@H]4OC(COC(C)=O)[C@@H](OC(C)=O)C(OC(C)=O)C4O[C@@H]4OC(COC(C)=O)[C@@H](OC(C)=O)C(OC(C)=O)C4OC(C)=O)nn3)OCc3cn(CCOCCOCCO[C@H]4OC(COC(C)=O)[C@@H](OC(C)=O)C(OC(C)=O)C4O[C@@H]4OC(COC(C)=O)[C@@H](OC(C)=O)C(OC(C)=O)C4OC(C)=O)nn3)nn2)C(OC(C)=O)C(OC(C)=O)[C@@H]1OC(C)=O (stereo partly drawn) [compound 3, 1,2,3-tris(1-{2-[2-(2-[O-(2,3,4,6-tetra-O-acetyl-β-D-mannopyranosyl)-(1→2)-3,4,6-tri-O-acetyl-α-D-mannopyranosyloxy]ethoxy)-ethoxy]ethyl}-4-methyloxy-1,2,3-triazolyl)propane]	Significantly increased production	significant suppression	significant suppression	promising in vitro activities	statistically significantly smaller	started later	slower
CC(=O)OCC1O[C@H](OCCn2cc(COCC(COCc3cn(CCO[C@H]4OC(COC(C)=O)[C@@H](OC(C)=O)[C@H](OC(C)=O)C4O[C@@H]4OC(COC(C)=O)[C@@H](OC(C)=O)[C@H](OC(C)=O)C4OC(C)=O)nn3)OCc3cn(CCO[C@H]4OC(COC(C)=O)[C@@H](OC(C)=O)[C@H](OC(C)=O)C4O[C@@H]4OC(COC(C)=O)[C@@H](OC(C)=O)[C@H](OC(C)=O)C4OC(C)=O)nn3)nn2)C(O[C@@H]2OC(COC(C)=O)[C@@H](OC(C)=O)[C@H](OC(C)=O)C2OC(C)=O)[C@@H](OC(C)=O)[C@@H]1OC(C)=O (stereo partly drawn) [compound 1, 1,2,3-tris[1-(3-{0-(2,3,4,6-tetra-O-acetyl-β-D-mannopyranosyl)-(1→2)-3,4,6-tri-O-acetyl-α-D-mannopyranosyloxy}ethyl)-4-methyloxy-1,2,3-triazolyl]propane]				promising in vitro activities			
